Assay results as given in patent US11690804B2, “Targeted delivery of therapeutic agents to human adipocytes” (AptamiR Therapeutics, Inc., priority 2018, dated 2023).
Square brackets hold non-standard residues; d marks the D form. Peptide text beside a SMILES is read from it. dTrp(2-Me) = Cc1[nH]c2ccccc2c1C[C@@H](N)C(=O)O

How the values were obtained:
[1] = system: MKR insulin-resistant mice; conditions: cited from earlier work
[2] = system: human subcutaneous adipocytes; assay: Transport of green fluorescent Hexarelin into primary cultures of human subcutaneous adipocytes (fluorescence microscopy); type: cell-based; conditions: green fluorescent probe, primary culture
Description: In vitro validation of HexamiRs targeted delivery of functional miRNAs: The ability of the HexamiRs to target and deliver ss-miRNA analogs to adipocytes will evaluated in a model of primary cultures of human subcutaneous adipocytes. The first experimental step was to confirm that Hexarelin is efficiently transported into human mature adipocytes, using an in vitro protocol of primary cultures of human subcutaneous adipocytes. To test this, hexarelin labeled with a green fluorescent probe was incubated with cultured adipocytes.

[3] = system: human subcutaneous adipocytes; assay: Transport of green fluorescent labeled fatty acids into primary cultures of human subcutaneous adipocytes (fluorescence microscopy); type: cell-based; conditions: green fluorescent probe, primary culture
Description: In vitro validation of AdipomiRs targeted delivery of functional miRNAs: The ability of the AdipomiRs to target and deliver ss-miRNA analogs to adipocytes was evaluated in a model of primary cultures of human subcutaneous adipocytes. The first experimental step was to confirm that fatty acids are efficiently transported into human mature adipocytes, using the inventor's in vitro protocol of primary cultures of human subcutaneous adipocytes. To test this, fatty acids such as palmitic and […] acids were labeled with a green fluorescent probe and incubated with cultured adipocytes.

Compound | glucose and insulin intolerance [1] | plasma and liver triglycerides [1] | transport of labeled hexarelin into the cytoplasm of human adipocytes [2] | transport of labeled fatty acids by human adipocytes [3]
Cc1[nH]c2ccccc2c1C[C@@H](NC(=O)[C@@H](N)Cc1cnc[nH]1)C(=O)N[C@@H](C)C(=O)N[C@@H](Cc1c[nH]c2ccccc12)C(=O)N[C@H](Cc1ccccc1)C(=O)N[C@@H](CCCCN)C(N)=O [Hexarelin, His-D-2-Me-Trp-Ala-Trp-D-Phe-Lys-NH2] (H-H[dTrp(2-Me)]AW[dF]K-NH2) | significantly improved | decreased | very efficiently transported | –
CCCCCCCCCCCCCCCC(=O)O [palmitic acid, Palmitic Acid] | – | – | – | very efficiently transported
